Tests used:
[1] = tested on: thermal hyperalgesia from carrageenan-induced acute paw inflammation; test: Carrageenan model, thermal hyperalgesia (Hargreaves' assay); type: in vivo; conditions: rat, 20 mg/kg s.c. 30 min prior to carrageenan, 2-3 hours post-carrageenan
Protocol: Carrageenan Model for Pain
Acute inflammatory hyperalgesia is induced in rats by unilateral injection of […] of a 3% solution of 1-carrageenan into the plantar surface of the left hind paw 2-4 h prior to testing. Thermal nociceptive thresholds are determined according to the method described elsewhere (Hargreaves et al., 1988). Briefly, through the glass surface, a radiant heat source (8 V, 50 W projector bulb) is focused onto the plantar surface of the hind paw. The rat's paw-withdrawal latency to this stimulus is recorded to the nearest 0.1 s. Each latency score is an average of three trials, which are separated by at least 5 min. In all rats, both the injured and uninjured hind paws are similarly tested, allowing direct comparisons between inflamed and non-inflamed paws.
FIG. 7 illustrates the effect of Compound 44 (20 mg/kg s.c.) on the thermal hyperalgesia (observed in the Hargreaves' assay) resulting from an acute paw inflammation caused by the intraplantar injection of 150 μl of a 3% solution of λ-carrageenan. Compound 44 was given 30 min prior to carrageenan injection and thermal hyperalgesia was tested 2, 3, and 4 h post carrageenan injection.

ASIC1a = biological target: T1, ASIC1a (Homo sapiens, UniProt P78348); test: Calcium-imaging (FLIPR) of MES-induced calcium response in ASIC1a expressing HEK293 cells; type: cell-based; design: host or cells: HEK293
T1 sequence (P78348 1-528): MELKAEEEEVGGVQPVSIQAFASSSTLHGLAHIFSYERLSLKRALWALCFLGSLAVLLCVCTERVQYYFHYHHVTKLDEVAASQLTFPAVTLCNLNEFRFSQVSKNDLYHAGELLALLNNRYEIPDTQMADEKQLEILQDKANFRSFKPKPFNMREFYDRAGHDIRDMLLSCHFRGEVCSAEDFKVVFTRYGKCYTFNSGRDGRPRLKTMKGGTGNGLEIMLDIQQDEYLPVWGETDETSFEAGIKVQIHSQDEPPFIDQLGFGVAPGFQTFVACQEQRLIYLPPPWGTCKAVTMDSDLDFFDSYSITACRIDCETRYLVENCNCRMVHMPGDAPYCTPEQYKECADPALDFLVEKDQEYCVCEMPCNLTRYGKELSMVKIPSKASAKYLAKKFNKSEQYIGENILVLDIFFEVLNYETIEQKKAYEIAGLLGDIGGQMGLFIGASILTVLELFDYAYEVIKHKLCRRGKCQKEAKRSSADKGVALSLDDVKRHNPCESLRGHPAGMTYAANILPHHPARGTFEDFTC
Protocol: Identification of ASIC Antagonists Using Calcium-Imaging
ASIC1a expressing HEK293 cells are grown in culture medium (DMEM with 10% FBS), in polystyrene culture flasks (175 mm 2) at 37° C. in a humidified atmosphere of 5% CO2. Confluency of cells should be 80-90% on day of plating. Cells are rinsed with 10 ml of PBS and cells are re-suspended by addition of culture medium and trituration with a 25 ml pipette.
The cells are seeded at a density of approximately 1×10^6 cells/ml (100 μl/well) in black-walled, clear bottom, 96-well plates pre-treated with 10 mg/l poly-D-lysin (75 μl/well for ≧30 min). Plated cells are allowed to proliferate for 24 h before loading with dye.
Loading with Fluorescent Calcium Dye Fluo-4/AM
Fluo-4/AM (1 mg, Molecular Probes) is dissolved in 912 μl DMSO. The Fluo-4/AM stock solution (1 mM) is diluted with culture medium to a final concentration of 2 μM (loading solution).
The culture medium is aspirated from the wells, and 50 μl of the Fluo-4/AM loading solution is added to each well. The cells are incubated at 37° C. for 30 min.
After the loading period, the loading solution is aspirated and the cells are washed twice with 100 μl modified Assay Buffer (145 mM NaCl, 5 mM KCl, 5 mM CaCl2, 1 mM MgCl2, 10 mM HEPES, pH 7.4) to remove extracellular dye. Following the second wash, 100 μl modified Assay Buffer is added to each well and the fluorescence is measured in FLIPR™ or FlexStation™ (Molecular Devices, USA), or any other suitable equipment known to the skilled in the art.
Temperature: Room temperature (20-22° C.)
First addition: 50 μl test solution at a rate of 30 μl/sec and a starting height of […]
Second addition: 50 μl MES solution (20 mM, 5 mM final concentration) at a rate of 35 μl/sec and a starting height of 150 μl.
Reading intervals: pre-incubation—10 sec×7 and 3 sec×3 antagonist phase—3 sec×17 and 10 sec×12
Addition plates (compound test plate and MES plate) are placed on the right and left positions in the FLIPR tray, respectively. Cell plates are placed in the middle position and the ASIC1a program is effectuated. FLIPR will then take the appropriate measurements in accordance with the interval settings above. Fluorescence obtained after stimulation is corrected for the mean basal fluorescence (in modified Assay Buffer).
Hit Confirmation and Characterization of Active Substances
The MES-induced peak calcium response, in the presence of test substance, is expressed relatively to the MES response alone. Test substances that block the MES-induced calcium response are re-tested in triplicates. […]

CCN1CCc2c(-c3cc(Cl)ccc3OC)cc(C#N)c(N)c2C1 [Compound 44]
effect on thermal hyperalgesia [1]: completely reversed
IC50 (ASIC1a): < 10 µM

Source: patent US20080004282A1, “Compositions and methods for modulating gated ion channels” (PainCeptor Pharma Corporation, priority 2006, published 2008)
